Test results taken from US9212163B2, “Pesticidal compositions and processes related thereto” (Dow AgroSciences LLC, priority 2012, dated 2015).

test system: Beet Armyworm (BAW) (Spodoptera exigua); test: Bioassay on Beet Armyworm (BAW), 128-well diet tray assay; assay type: in vivo; conditions: Table 3: Assay Results Part 1
Procedure: Certain molecules disclosed in this document were tested against BAW, CEW and CL using procedures described in the following examples. In the reporting of the results, the “BAW & CEW & CL Rating Table” was used (See Table Section).
Bioassays on BAW (Spodoptera exigua)
Bioassays on BAW were conducted using a 128-well diet tray assay. One to five second instar BAW larvae were placed in each well (3 mL) of the diet tray that had been previously filled with 1 mL of artificial diet to which 50 μg/cm^2 of the test compound (dissolved in 50 μL of 90:10 acetone-water mixture) had been applied (to each of eight wells) and then allowed to dry. Trays were covered with a clear self-adhesive cover, and held at 25° C., 14:10 light-dark for five to seven days. Percent mortality was recorded for the larvae in each well; activity in the eight wells was then averaged. The results are indicated in the tables entitled “Table 3: Assay Results Part 1” and “Table 4: Assay Results Part 2” (See Table Section).

Structure (SMILES) | BAW Rating
Cc1cc(/C=C/C(c2cc(Cl)c(Cl)c(Cl)c2)C(F)(F)F)ccc1C(=O)NC(C)(C)c1ccccn1 (stereo not drawn) [AC27] | A (50-100)
FC(F)(F)C(/C=C/c1ccc(-n2cncn2)cc1)c1ccccc1 (stereo not drawn) [DC3] | B (More than 0-Less than 50)
O=C(NCc1ccc(/C=C/C(c2cc(Cl)c(Cl)c(Cl)c2)C(F)(F)F)cc1C(F)(F)F)c1cccnc1 (stereo not drawn) [CC23] | A (50-100)
O=C(CNC(=S)c1ccc(/C=C/C(c2cc(Cl)c(Cl)c(Cl)c2)C(F)(F)F)cc1Br)NCC(F)(F)F (stereo not drawn) [AC91, (E)-2-(2-Bromo-4-(4,4,4-trifluoro-3-(3,4,5-trichlorophenyl)but-1-en-1-yl)phenylthioamido)-N-(2,2,2-trifluoroethyl)acetamide] | A (50-100)
O=C(NCc1ccc(/C=C/C(c2cc(Cl)c(Cl)c(Cl)c2)C(F)(F)F)cc1Cl)N1CCOCC1 (stereo not drawn) [CC34] | A (50-100)
FC(F)(F)C(/C=C/c1ccc(-n2cncn2)cc1)c1cc(Cl)cc(Cl)c1 (stereo not drawn) [DC1, (E)-1-(4-(3-(3,5-Dichlorophenyl)-4,4,4-trifluorobut-1-en-1-yl)phenyl)-1H-1,2,4-triazole] | A (50-100)
Cc1cc(/C=C/C(c2cc(Cl)cc(Cl)c2)C(F)(F)F)ccc1C(=O)NCc1ccoc1 (stereo not drawn) [AC20] | A (50-100)
O=C(NCc1ccc(Cl)nc1)c1ccc(/C=C/C(c2cc(Cl)cc(Cl)c2)C(F)(F)F)cc1F (stereo not drawn) [AC49] | A (50-100)
Cc1cc(/C=C\C(c2cc(Cl)cc(Cl)c2)C(F)(F)F)ccc1C(=O)NCC(=O)NC1CC1 (stereo not drawn) [AC93] | A (50-100)
Fc1cc(F)cc(C(/C=C/c2ccc(-n3cncn3)cc2)C(F)(F)F)c1 (stereo not drawn) [DC8] | A (50-100)
FC(F)(F)C(/C=C/c1ccc(-n2cncn2)c(Cl)c1)c1cc(Cl)c(Cl)c(Cl)c1 (stereo not drawn) [DC49] | A (50-100)
O=C(NC1CS(=O)(=O)C1)c1ccc(/C=C/C(c2cc(Cl)c(Cl)c(Cl)c2)C(F)(F)F)cc1C(F)(F)F (stereo not drawn) [AC35] | A (50-100)
Cc1cc(/C=C/C(c2cc(Cl)c(F)c(Cl)c2)C(F)(F)F)ccc1C(=O)NCc1ccc(Cl)cn1 (stereo not drawn) [AC53] | A (50-100)
COc1c(Cl)cc(C(/C=C/c2ccc(-n3cncn3)c(C#N)c2)C(F)(F)F)cc1Cl (stereo not drawn) [DC34] | A (50-100)
O=C(CC(F)(F)F)NCc1ccc(/C=C/C(c2cc(Cl)c(Cl)c(Cl)c2)C(F)(F)F)cc1Br (stereo not drawn) [CC25] | A (50-100)
N#CCN1CCC(NC(=O)c2ccc(/C=C/C(c3cc(Cl)c(Cl)c(Cl)c3)C(F)(F)F)cc2Br)CC1 (stereo not drawn) [AC107] | B (More than 0-Less than 50)
O=C(NCc1ccc(Cl)nc1)c1ccc(/C=C/C(c2cc(Cl)c(F)c(Cl)c2)C(F)(F)F)cc1Br (stereo not drawn) [AC63] | A (50-100)
CC(=O)NCc1ccc(/C=C/C(c2cc(Cl)cc(Cl)c2)C(F)(F)F)cc1Cl (stereo not drawn) [CC7, (E)-N-(2-Chloro-4-(3-(3,5-dichlorophenyl)-4,4,4-trifluorobut-1-en-1-yl)benzyl)acetamide] | A (50-100)
Fc1c(Cl)cc(C(/C=C/c2ccc3c(c2)CCC3NCCC(F)(F)F)C(F)(F)F)cc1Cl (stereo not drawn) [BC10, (E)-5-(3-(3,5-Dichloro-4-fluorophenyl)-4,4,4-trifluorobut-1-en-1-yl)-N-(3,3,3-trifluoropropyl)-2,3-dihydro-1H-inden-1-amine] | A (50-100)
Cc1cc(/C=C/C(c2cc(Cl)cc(Cl)c2)C(F)(F)F)ccc1C(=O)NCc1nc2ccccc2s1 (stereo not drawn) [AC42] | A (50-100)
Cc1cc(/C=C/C(c2cc(Cl)cc(Cl)c2)C(F)(F)F)cc(C#N)c1-n1cncn1 (stereo not drawn) [DC44] | A (50-100)
O=C(NC1CCNCC1)c1ccc(/C=C/C(c2cc(Cl)c(Cl)c(Cl)c2)C(F)(F)F)cc1Br (stereo not drawn) [AC114, (E)-2-Bromo-N-(piperidin-4-yl)-4-(4,4,4-trifluoro-3-(3,4,5-trichlorophenyl)but-1-en-1-yl)benzamide] | A (50-100)
N#Cc1cc(/C=C/C(c2cc(Cl)c(F)c(Cl)c2)C(F)(F)F)ccc1-n1cncn1 (stereo not drawn) [DC35] | A (50-100)
O=C(NCc1ccc(/C=C/C(c2cc(Cl)c(F)c(Cl)c2)C(F)(F)F)cc1Cl)C1CC1 (stereo not drawn) [CC15] | A (50-100)
